From patent publication US11549147B2, “Treatment of atopic dermatitis with tradipitant” (VANDA PHARMACEUTICALS INC., priority 2017, dated 2023)

Tested on: treatment-resistant pruritus associated with atopic dermatitis, high or low baseline IgE
Test: Exploratory analysis of study NCT02651714 by baseline IgE level (Example 4)
Format: in vivo, human
Parameters: Average Itch NRS / Average Itch NRS, Diff / Sleep Disturbance / Extension / Excoriations, Diff / Erythema / Skin dryness / Skin dryness, Diff / Itch / Itch, Diff / Insomnia / Insomnia, Diff / CGIC / CGIC, Diff / VRS / VRS, Diff / Average Itch VAS / Average Itch VAS, Diff / worst Itch VAS, Diff: scale not given here
Conditions: 85 mg bid; for Average Itch NRS, Diff / Average Itch VAS, Diff / CGIC, Diff / EASI, Diff / Erythema, Diff / Excoriations, Diff / Extension, Diff / Insomnia, Diff / Intensity, Diff / Itch, Diff / Lichenification, Diff / Log EASI, Diff / Objective SCORAD, Diff / Oozing/crusting, Diff / PBI, Diff / PGIC AD, Diff / PGIC ITCH, Diff / SCORAD Total, Diff / Skin dryness, Diff / Sleep Disturbance, Diff / Subjective SCORAD, Diff / VRS, Diff / Worst Itch NRS Day, Diff / Worst Itch NRS Night, Diff / Worst Itch NRS, Diff / edema/Papules, Diff / worst Itch VAS >= 30, Diff / worst Itch VAS, Diff / worst ItchVAS >= 40, Diff / EASI 75, Diff / SCORAD 50, Diff: Diff tradipitant vs placebo; for Average Itch NRS / Average Itch VAS / EASI / Log EASI / Objective SCORAD / SCORAD Total / Sleep Disturbance / Subjective SCORAD / VRS / Worst Itch NRS / Worst Itch NRS Day / Worst Itch NRS Night / worst Itch VAS: week 8, vs baseline; for worst Itch VAS >= 30 / worst ItchVAS >= 40: Fisher; for Erythema / Excoriations / Extension / Intensity / Lichenification / Oozing/crusting / Skin dryness / edema/Papules: objective SCORAD parameter; for Insomnia / Itch: subjective SCORAD parameter
Method: In the study described above in Example 3, an exploratory analysis is conducted to analyze Immunoglobulin E (IgE) levels and the effect of treatment with tradipitant on atopic dermatitis and pruritus. For purposes of the analysis, study participants having an IgE level greater than or equal to 100 kU/L are deemed to have a high IgE level, while study participants having an IgE level of less than 100 kU/L are deemed to have a low IgE level. The baseline mean and range SCORAD total for each of the total study population, the high IgE group, and the low IgE group are shown below in Table 5.
The mean and range of SCORAD totals shown in Table 5 illustrate that the study population spans different strata of disease severity, from mild to severe. Table 5 also illustrates the similarity in disease severity between the high IgE and low IgE groups. Table 6 (below) presents the study results of tradipitant in treatment-resistant pruritus associated with atopic dermatitis in individuals having high baseline IgE levels (IgE≥100 kU/L), while Table 7 (below) presents the study results of tradipitant in treatment-resistant pruritus associated with atopic dermatitis in individuals having low baseline IgE levels (IgE<100 kU/L). The data in Tables 6-7 represent a separation by IgE level of the data appearing in Table 4 above.
For purposes of the present analysis, individuals having an IgE level greater than or equal to 100 kU/L are considered to have high IgE levels, while individuals having an IgE level of less than 100 kU/L are considered to have low IgE levels.

[1] = high baseline IgE (≥100 kU/L), week 8
[2] = high baseline IgE (≥100 kU/L), week 8, LOCF
[3] = low baseline IgE (<100 kU/L), week 8
[4] = low baseline IgE (<100 kU/L), week 8, LOCF
[5] = high baseline IgE (≥100 kU/L), ITT, week 8
[6] = high baseline IgE (≥100 kU/L), ITT
[7] = high baseline IgE (≥100 kU/L), ITT, week 8, LOCF
[8] = low baseline IgE (<100 kU/L), ITT, week 8
[9] = low baseline IgE (<100 kU/L), ITT
[10] = low baseline IgE (<100 kU/L), ITT, week 8, LOCF

O=C(c1ccccc1Cl)c1cccnc1-c1nnn(Cc2cc(C(F)(F)F)cc(C(F)(F)F)c2)c1-c1ccncc1 [Tradipitant]
Average Itch NRS, Diff [1]: −1.6
Average Itch VAS, Diff [1]: −14.97
CGIC, Diff [1]: −0.96
EASI, Diff [1]: −1.13
Erythema, Diff [1]: −0.15
Excoriations, Diff [1]: −0.56
Extension, Diff [1]: −0.72
Insomnia, Diff [1]: −1.12
Intensity, Diff [1]: −1.75
Itch, Diff [1]: −2.04
Lichenification, Diff [1]: −0.27
Log EASI, Diff [1]: −0.46
Objective SCORAD, Diff [1]: −6.4
Oozing/crusting, Diff [1]: −0.23
PBI, Diff [1]: 0.67
PGIC AD, Diff [1]: −0.91
PGIC ITCH, Diff [1]: −0.82
SCORAD Total, Diff [1]: −9.9
Skin dryness, Diff [1]: −0.27
Sleep Disturbance, Diff [1]: −1.7
Subjective SCORAD, Diff [1]: −3.1
VRS, Diff [1]: −0.5597
Worst Itch NRS Day, Diff [1]: −2.06
Worst Itch NRS Night, Diff [1]: −2.14
Worst Itch NRS, Diff [1]: −2.1
edema/Papules, Diff [1]: −0.39
worst Itch VAS >= 30, Diff [1]: 36.3%
worst Itch VAS, Diff [1]: −25.7
worst ItchVAS >= 40, Diff [1]: 28.4%
EASI 75, Diff [2]: 18.3%
SCORAD 50, Diff [2]: 36.6%
Average Itch NRS, Diff [3]: 0.4
Average Itch VAS, Diff [3]: 6.8
CGIC, Diff [3]: −0.3
EASI, Diff [3]: −0.47
Erythema, Diff [3]: −0.31
Excoriations, Diff [3]: −0.24
Extension, Diff [3]: −0.94
Insomnia, Diff [3]: 0.29
Intensity, Diff [3]: −0.99
Itch, Diff [3]: 0.13
Lichenification, Diff [3]: −0.03
Log EASI, Diff [3]: −0.21
Objective SCORAD, Diff [3]: −3.7
Oozing/crusting, Diff [3]: −0.18
PBI, Diff [3]: 0.5
PGIC AD, Diff [3]: −0.6
PGIC ITCH, Diff [3]: −0.48
SCORAD Total, Diff [3]: −2.8
Skin dryness, Diff [3]: −0.40
Sleep Disturbance, Diff [3]: 0.2
Subjective SCORAD, Diff [3]: 0.43
VRS, Diff [3]: −0.23
Worst Itch NRS Day, Diff [3]: 0.43
Worst Itch NRS Night, Diff [3]: 0.08
Worst Itch NRS, Diff [3]: 0.3
edema/Papules, Diff [3]: 0.08
worst Itch VAS >= 30, Diff [3]: −3.2%
worst Itch VAS, Diff [3]: −0.9
worst ItchVAS >= 40, Diff [3]: 5.6%
EASI 75, Diff [4]: 1.8%
SCORAD 50, Diff [4]: 7.7%
CGIC [5]: 2.6
PBI [5]: 1.7
PGIC AD [5]: 3.0
PGIC ITCH [5]: 2.7
Average Itch NRS [6]: −3.4
Average Itch VAS [6]: −41.9
EASI [6]: −3.78
Log EASI [6]: −0.8
Objective SCORAD [6]: −11.7
SCORAD Total [6]: −20.3
Sleep Disturbance [6]: −3.5
Subjective SCORAD [6]: −8.7
VRS [6]: −1.529
Worst Itch NRS [6]: −3.6
Worst Itch NRS Day [6]: −3.7
Worst Itch NRS Night [6]: −3.8
worst Itch VAS [6]: −43.9
worst Itch VAS >= 30 [5]: 57.9%
worst ItchVAS >= 40 [5]: 50.0%
EASI 75 [7]: 23.7%
SCORAD 50 (patients with at least a 50 percent reduction of SCORAD) [7]: 47.4%
SCORAD 50 (patients with at least a 50 percent reduction of SCORAD) (high baseline IgE (≥100 kU/L), ITT, week 8, LOCF, listed as tradipitant): 47%
CGIC [8]: 2.7
PBI [8]: 1.98
PGIC AD [8]: 2.4
PGIC ITCH [8]: 2.3
Average Itch NRS [9]: −2.9
Average Itch VAS [9]: −39.3
EASI [9]: −2.7
Log EASI [9]: −0.67
Objective SCORAD [9]: −13.1
SCORAD Total [9]: −19.9
Sleep Disturbance [9]: −3.0
Subjective SCORAD [9]: −7.2
VRS [9]: −1.54
Worst Itch NRS [9]: −2.9
Worst Itch NRS Day [9]: −2.9
Worst Itch NRS Night [9]: −3.0
worst Itch VAS [9]: −44
worst Itch VAS >= 30 [8]: 55.6%
worst ItchVAS >= 40 [8]: 55.6%
EASI 75 [10]: 19.4%
SCORAD 50 [10]: 40.0%
Erythema [5]: −0.46
Excoriations [5]: −0.80
Extension [5]: −2.4
Intensity [5]: −3.2
Lichenification [5]: −0.42
Oozing/crusting [5]: −0.53
Skin dryness [5]: −0.62
edema/Papules [5]: −0.62
Erythema [8]: −0.74
Excoriations [8]: −0.74
Extension [8]: −1.9
Intensity [8]: −3.6
Lichenification [8]: −0.49
Oozing/crusting [8]: −0.61
Skin dryness [8]: −0.73
edema/Papules [8]: −0.43
treatment effect in itch and disease severity, high IgE group compared to low IgE group (regardless of IgE cutoff (50 to 300 kU/L)): consistently stronger treatment effect
Insomnia [5]: −4.0
Itch [5]: −4.7
Insomnia [8]: −3.2
Itch [8]: −4.0
